From patent publication US10202361B2, “Pyridazinones as herbicides” (E I DU PONT DE NEMOURS AND COMPANY, priority 2014, dated 2019)

Tests used:
Type in all cases: in vivo
[1] = test system: bluegrass (annual bluegrass, Poa annua); assay: Test D pre-/postemergence controlled growth environment herbicide test; details: scale 0 to 100
Outline: (§1)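 Herbicidal effect, both preemergence (silt loam soil) and postemergence (1- to 4-leaf plants, peat-based medium), was scored 14–21 d post-treatment on a 0–100 control scale relative to untreated plants; applications used a non-phytotoxic solvent formulation with surfactant.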

[2] = test system: speedwell (bird's-eye speedwell, Veronica persica); assay: as above; details: scale 0 to 100
Outline: as §1

[3] = test system: Russian thistle (Salsola kali); assay: as above; details: scale 0 to 100
Outline: as §1

[4] = test system: mustard, wild (wild mustard, Sinapis arvensis); assay: as above; details: scale 0 to 100
Outline: as §1

[5] = test system: lambsquarters (Chenopodium album); assay: as above; details: scale 0 to 100
Outline: as §1

[6] = test system: wheat, spring (spring wheat, Triticum aestivum); assay: as above; details: scale 0 to 100
Outline: as §1

[7] = test system: crabgrass, large (large crabgrass Digitaria sanguinalis); assay: Test E pre-/postemergence greenhouse herbicide test; details: Preemergence, scale 0 to 100
[8] = test system: cocklebur (common cocklebur, Xanthium strumarium); assay: as above; details: Preemergence, scale 0 to 100

Cc1cc(=O)n(-c2ccc(F)cc2)nc1Oc1ccnc(C(F)(F)F)c1 [Compound 14, 2-(4-fluorophenyl)-5-methyl-6-[[2-(trifluoromethyl)-4-pyridinyl]oxy]-3 (2H)-pyridazinone]
Plant response rating ([1]; Postemergence, 16 g ai/ha): 15
Plant response rating ([1]; Postemergence, 31 g ai/ha): 20
Plant response rating ([1]; Postemergence, 62 g ai/ha): 20
Plant response rating ([1]; Postemergence, 125 g ai/ha): 15
Plant response rating ([1]; Postemergence, 250 g ai/ha): 30
Plant response rating ([1]; Preemergence, 16 g ai/ha): 5
Plant response rating ([1]; Preemergence, 31 g ai/ha): 0
Plant response rating ([1]; Preemergence, 62 g ai/ha): 0
Plant response rating ([1]; Preemergence, 125 g ai/ha): 10
Plant response rating ([1]; Preemergence, 250 g ai/ha): 35
Plant response rating ([2]; Postemergence, 16 g ai/ha): 100
Plant response rating ([2]; Postemergence, 31 g ai/ha): 100
Plant response rating ([2]; Postemergence, 62 g ai/ha): 100
Plant response rating ([2]; Postemergence, 125 g ai/ha): 100
Plant response rating ([2]; Postemergence, 250 g ai/ha): 100
Plant response rating ([2]; Preemergence, 250 g ai/ha): 100
Plant response rating ([3]; Postemergence, 16 g ai/ha): 20
Plant response rating ([3]; Postemergence, 31 g ai/ha): 10
Plant response rating ([3]; Postemergence, 62 g ai/ha): 15
Plant response rating ([3]; Postemergence, 125 g ai/ha): 20
Plant response rating ([3]; Postemergence, 250 g ai/ha): 35
Plant response rating ([3]; Preemergence, 16 g ai/ha): 0
Plant response rating ([3]; Preemergence, 31 g ai/ha): 50
Plant response rating ([3]; Preemergence, 62 g ai/ha): 85
Plant response rating ([3]; Preemergence, 125 g ai/ha): 50
Plant response rating ([3]; Preemergence, 250 g ai/ha): 95
Plant response rating ([4]; Postemergence, 16 g ai/ha): 65
Plant response rating ([4]; Postemergence, 31 g ai/ha): 60
Plant response rating ([4]; Postemergence, 62 g ai/ha): 65
Plant response rating ([4]; Postemergence, 125 g ai/ha): 75
Plant response rating ([4]; Postemergence, 250 g ai/ha): 95
Plant response rating ([4]; Preemergence, 16 g ai/ha): 30
Plant response rating ([4]; Preemergence, 31 g ai/ha): 35
Plant response rating ([4]; Preemergence, 62 g ai/ha): 40
Plant response rating ([4]; Preemergence, 125 g ai/ha): 100
Plant response rating ([4]; Preemergence, 250 g ai/ha): 100
Plant response rating ([5]; Postemergence, 16 g ai/ha): 55
Plant response rating ([5]; Postemergence, 31 g ai/ha): 60
Plant response rating ([5]; Postemergence, 62 g ai/ha): 70
Plant response rating ([5]; Postemergence, 125 g ai/ha): 80
Plant response rating ([5]; Postemergence, 250 g ai/ha): 90
Plant response rating ([5]; Preemergence, 16 g ai/ha): 5
Plant response rating ([5]; Preemergence, 31 g ai/ha): 25
Plant response rating ([5]; Preemergence, 62 g ai/ha): 20
Plant response rating ([5]; Preemergence, 125 g ai/ha): 95
Plant response rating ([5]; Preemergence, 250 g ai/ha): 95
Plant response rating ([6]; Postemergence, 16 g ai/ha): 5
Plant response rating ([6]; Postemergence, 31 g ai/ha): 10
Plant response rating ([6]; Postemergence, 62 g ai/ha): 15
Plant response rating ([6]; Postemergence, 125 g ai/ha): 15
Plant response rating ([6]; Postemergence, 250 g ai/ha): 15
Plant response rating ([6]; Preemergence, 16 g ai/ha): 0
Plant response rating ([6]; Preemergence, 31 g ai/ha): 0
Plant response rating ([6]; Preemergence, 62 g ai/ha): 0
Plant response rating ([6]; Preemergence, 125 g ai/ha): 10
Plant response rating ([6]; Preemergence, 250 g ai/ha): 15

COc1cc(=O)n(-c2ccc(C(F)(F)F)cc2)nc1Cc1ccnc(C(F)(F)F)c1 [Compound 16, 5-methoxy-2-[4-(trifluoromethyl)phenyl]-6-[[2-(trifluoromethyl)-4-pyridinyl]methyl]-3(2H)-pyridazinone]
Plant response rating: Crabgrass, Large ([7]; 62 g ai/ha): 100
Plant response rating: Crabgrass, Large ([7]; 125 g ai/ha): 100
Plant response rating: Crabgrass, Large ([7]; 250 g ai/ha): 100
Plant response rating: Cocklebur ([8]; 125 g ai/ha): 0
Plant response rating: Cocklebur ([8]; 250 g ai/ha): 0
